Molecular target: T1, human vasopressin V1b receptor (Homo sapiens, UniProt P47901)
T1 construct: expressed in transfected cells; host or cells: CHO-K1 (cell line hV1b-3H2_CHO), membrane preparation
T1 sequence (P47901 1-424): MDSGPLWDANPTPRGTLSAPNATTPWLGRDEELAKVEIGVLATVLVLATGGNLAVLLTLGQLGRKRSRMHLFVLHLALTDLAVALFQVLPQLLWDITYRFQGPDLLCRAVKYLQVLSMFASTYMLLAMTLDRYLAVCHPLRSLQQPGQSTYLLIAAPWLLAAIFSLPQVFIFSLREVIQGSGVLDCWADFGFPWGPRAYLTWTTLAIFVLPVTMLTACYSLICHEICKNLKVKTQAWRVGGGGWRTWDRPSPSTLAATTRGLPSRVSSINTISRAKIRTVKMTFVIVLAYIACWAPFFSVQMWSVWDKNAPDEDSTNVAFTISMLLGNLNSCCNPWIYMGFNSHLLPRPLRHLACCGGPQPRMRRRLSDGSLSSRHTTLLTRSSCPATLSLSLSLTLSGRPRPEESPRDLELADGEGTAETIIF
Experiment: Vasopressin V1b receptor binding assay
Conditions: membranes from CHO-K1 cells with stably expressed human V1b receptors; displacement of 1.5 nM 3H-AVP; read-out: V1b receptor affinity (affinity constant Ki)
Procedure, shortened: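 Ki values come from nonlinear regression of triplicate scintillation counts after filtration. Test compound (2% DMSO in the mixture) and radioligand were incubated 60 min at room temperature with human V1b membranes in pH 7.4 Tris buffer with 10 mM MgCl2 and 0.1% BSA. Nonspecific binding was set with 1 uM AVP.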

Row | Ki | Compound
1 | < 0.1 µM | CCCN1CCN(C2CCN(C(=O)C(c3ccccc3)n3c(=O)n(S(=O)(=O)c4ccc(OC)cc4)c4ccc(Cl)cc43)CC2)CC1 (stereo not shown) [Example 17, 5-Chloro-1-(4-methoxybenzenesulfonyl)-3-{2-oxo-1-phenyl-2-[4-(4-propylpiperazin-1-yl)piperidin-1-yl]ethyl}-1,3-dihydrobenzimidazol-2-one]
2 | 0.5 to 10 µM | COc1ccc(S(=O)(=O)n2c(=O)n(C(C(=O)NCCCN3CCCC3=O)c3ccccc3)c3cc(Cl)ccc32)cc1 (stereo not shown) [Example 125, 2-[6-Chloro-3-(4-methoxybenzenesulfonyl)-2-oxo-2,3-dihydrobenzimidazol-1-yl]-N-[3-(2-oxopyrrolidin-1-yl)propyl]-2-phenylacetamide]
3 | 0.1 to 0.5 µM | COc1ccc(S(=O)(=O)n2c(=O)n(C(C(=O)N3CCC(N4CCN(C)CC4)CC3)c3ccccc3)c3cc(Cl)ccc32)cc1 (stereo not shown) [Example 64, 5-Chloro-1-(4-methoxybenzenesulfonyl)-3-{2-[4-(4-methylpiperazin-1-yl)piperidin-1-yl]-2-oxo-1-phenylethyl}-1,3-dihydrobenzimidazol-2-one]
4 | 0.1 to 0.5 µM | COc1ccc(S(=O)(=O)n2c(=O)n(C(C(=O)N3CCC[C@H](NC4CCN(C)CC4)C3)c3ccccc3)c3cc(C#N)ccc32)cc1 (stereo partly drawn) [Example 246, 1-(4-Methoxy-benzenesulfonyl)-3-{2-[(S)-3-(1-methyl-piperidin-4-ylamino)-piperidin-1-yl]-2-oxo-1-phenyl-ethyl}-2-oxo-2,3-dihydro-1H-benzoimidazole-5-carbonitrile]
5 | 0.5 to 10 µM | CN1CCC(N2CCN(C(=O)C(c3ccccc3)n3c(=O)n(S(=O)(=O)c4ccc(C#N)cc4)c4cc(Cl)ccc43)CC2)CC1 (stereo not shown) [Example 39, 4-(6-Chloro-3-{2-[4-(1-methylpiperidin-4-yl)piperazin-1-yl]-2-oxo-1-phenylethyl}-2-oxo-2,3-dihydrobenzimidazole-1-sulfonyl)benzonitrile]
6 | < 0.1 µM | CCCN1CCN(C2CCN(C(=O)C(c3ccccc3)n3c(=O)n(S(=O)(=O)c4ccc(OC)cc4)c4ccc(C#N)cc43)C2)CC1 (stereo not shown) [Example 52, 1-(4-Methoxybenzenesulfonyl)-2-oxo-3-{2-oxo-1-phenyl-2-[3-(4-propylpiperazin-1-yl)-pyrrolidin-1-yl]-ethyl}-2,3-dihydro-1H-benzimidazole-5-carbonitrile]
7 | 0.5 to 10 µM | COc1ccc(S(=O)(=O)n2c(=O)n(C(C(=O)N3CCC(N)CC3)c3ccccc3)c3cc(C#N)ccc32)cc1 (stereo not shown) [Example 239, 3-[2-(4-Amino-piperidin-1-yl)-2-oxo-1-phenyl-ethyl]-1-(4-methoxybenzenesulfonyl)-2-oxo-2,3-dihydro-1H-benzoimidazole-5-carbonitrile]
8 | 0.5 to 10 µM | COc1ccccc1C(C(=O)N1CCN(C2CCN(C)CC2)CC1)n1c(=O)n(S(=O)(=O)c2cccc3cccnc23)c2ccc(Cl)cc21 (stereo not shown) [Example 15, 5-Chloro-3-{1-(2-methoxyphenyl)-2-[4-(1-methylpiperidin-4-yl)piperazin-1-yl]-2-oxoethyl}-1-(quinoline-8-sulfonyl)-1,3-dihydrobenzimidazol-2-one]
9 | 0.5 to 10 µM | CCN(CC)C(=O)C(c1ccccc1)n1c(=O)n(S(=O)(=O)c2ccc(OC)cc2)c2ccc(Cl)cc21 (stereo not shown) [Example 104, 2-[6-Chloro-3-(4-methoxybenzenesulfonyl)-2-oxo-2,3-dihydrobenzimidazol-1-yl]-N,N-diethyl-2-phenylacetamide]
10 | 0.5 to 10 µM | N#Cc1ccc(S(=O)(=O)n2c(=O)n(C(C(=O)N3CCN(c4ccncc4)CC3)c3ccccc3)c3cc(Cl)c(Cl)cc32)cc1 (stereo not shown) [Example 62, 4-{5,6-Dichloro-2-oxo-3-[2-oxo-1-phenyl-2-(4-pyridin-4-ylpiperazin-1-yl)-ethyl]-2,3-dihydrobenzimidazol-1-sulfonyl}benzonitrile]
11 | < 0.1 µM | CCCN1CCN(C2CCN(C(=O)C(c3ccc(OC)cc3)n3c(=O)n(S(=O)(=O)c4ccc(OC)cc4)c4ccc(Cl)cc43)C2)CC1 (stereo not shown) [Example 78, 5-Chloro-1-(4-methoxybenzenesulfonyl)-3-{1-(4-methoxyphenyl)-2-oxo-2-[3-(4-propylpiperazin-1-yl)pyrrolidin-1-yl]ethyl}-1,3-dihydrobenzimidazol-2-one]
12 | 0.5 to 10 µM | COc1ccc(S(=O)(=O)n2c(=O)n(C(C(=O)N3CCN(C4CCN(C)CC4)CC3)c3ccccc3)c3ccccc32)cc1 (stereo not shown) [Example 60, 1-(4-Methoxybenzenesulfonyl)-3-{2-[4-(1-methylpiperidin-4-yl)piperazin-1-yl]-2-oxo-1-phenyl-ethyl}-1,3-dihydrobenzimidazol-2-one]
13 | 0.5 to 10 µM | COc1ccc(S(=O)(=O)n2c(=O)n(C(C(=O)N3CCN(C4CCCNC4)CC3)c3ccccc3)c3cc(Cl)ccc32)cc1 (stereo not shown) [Example 165, 5-Chloro-1-(4-methoxybenzenesulfonyl)-3-[2-oxo-1-phenyl-2-(4-piperidin-3-ylpiperazin-1-yl)ethyl]-1,3-dihydrobenzimidazol-2-one]
14 | 0.5 to 10 µM | COc1ccc(S(=O)(=O)n2c(=O)n(C(C(=O)N3CC[C@H](NC4CCN(C(=O)OC(C)(C)C)CC4)C3)c3ccccc3)c3cc(C#N)ccc32)cc1 (stereo partly drawn) [Example 243, 4-((S)-1-{2-[6-Cyano-3-(4-methoxy-benzenesulfonyl)-2-oxo-2,3-dihydrobenzoimidazol-1-yl]-2-phenyl-acetyl}-pyrrolidin-3-ylamino)-piperidine-1-carboxylic acid tert-butyl ester]
15 | 0.1 to 0.5 µM | CCCN1CCN([C@@H]2CCN(C(=O)C(c3ccccc3)n3c(=O)n(S(=O)(=O)c4ccc(OC)cc4)c4ccc(C#N)cc43)C2)CC1 (stereo partly drawn) [Example 163, 1-(4-Methoxybenzenesulfonyl)-2-oxo-3-{2-oxo-1-phenyl-2-[(R)-3-(4-propylpiperazin-1-yl)pyrrolidin-1-yl]ethyl}-2,3-dihydro-1H-benzimidazole-5-carbonitrile]
16 | < 0.1 µM | COc1ccc(S(=O)(=O)n2c(=O)n(C(C(=O)N3CCCC(N4CCN(C)CC4)C3)c3ccccc3)c3cc(Cl)ccc32)cc1 (stereo not shown) [Example 156, 5-Chloro-1-(4-methoxybenzenesulfonyl)-3-{2-[3-(4-methylpiperazin-1-yl)piperidin-1-yl]-2-oxo-1-phenylethyl}-1,3-dihydrobenzimidazol-2-one]
17 | < 0.1 µM | COc1ccc(S(=O)(=O)n2c(=O)n(C(C(=O)N3CC[C@H](N4CCN(Cc5ccccc5)CC4)C3)c3ccccc3)c3cc(Cl)ccc32)cc1 (stereo partly drawn) [Example 140, 3-{2-[(S)-3-(4-Benzylpiperazin-1-yl)pyrrolidin-1-yl]-2-oxo-1-phenylethyl}-5-chloro-1-(4-methoxybenzenesulfonyl)-1,3-dihydrobenzimidazol-2-one]
18 | < 0.1 µM | COc1ccc(S(=O)(=O)n2c(=O)n(C(C(=O)N3CC[C@H](NC4CCN(C)CC4)C3)c3ccccc3)c3cc(C#N)ccc32)cc1 (stereo partly drawn) [Example 207, 1-(4-Methoxybenzenesulfonyl)-3-{2-[(S)-3-(1-methylpiperidin-4-ylamino)-pyrrolidin-1-yl]-2-oxo-1-phenylethyl}-2-oxo-2,3-dihydro-1H-benzimidazole-5-carbonitrile]
19 | 0.1 to 0.5 µM | CN1CCN(C2CCN(C(=O)C(c3ccccc3)n3c(=O)n(S(=O)(=O)c4ccc(C#N)cc4)c4ccc(Cl)cc43)CC2)CC1 (stereo not shown) [Example 65, 4-(5-Chloro-3-{2-[4-(4-methylpiperazin-1-yl)piperidin-1-yl]-2-oxo-1-phenylethyl}-2-oxo-2,3-dihydrobenzimidazole-1-sulfonyl)benzonitrile]

From patent US8791148B2, “Substituted benzimidazolone derivatives, medicaments comprising them and their use” (AbbVie Deutschland GmbH & Co. KG, priority 2006, dated 2014)
